Reference: US10208066B2, “Imidazopyridazine compounds and their use” (HUTCHISON MEDIPHARMA LIMITED, priority 2014, dated 2019)
Where two headings read alike, the source gives them in different places.

Columns and labels:
Assay in all cases: Transcreener KINASE Assay, fluorescent determination of PI3K enzyme activity;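 as to PI3K-β IH % (inhibition rate): recombinant PI3K enzyme reaction, 80 min at room temperature, ADP formed detected by far-red competitive fluorescence polarization immunoassay, inhibition relative to ADP in 2% DMSO control wells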;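 as to PI3K-γ IH % (inhibition rate): ADP produced by p110γ kinase reaction, 80 min at room temperature, detected by far-red fluorescence polarization immunoassay, inhibition relative to 2% DMSO control wells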;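 as to PI3K-δ IH % (inhibition rate): ADP formed by the kinase detected via far-red competitive fluorescence polarization immunoassay after 80 min room-temperature reaction, inhibition relative to 2% DMSO wells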
Format in all cases: biochemical
PI3K-γ (p110γ) = PI3K-γ (p110γ) (Homo sapiens (Human), UniProt P48736); conditions: for inhibition at 1 µM: read-out: PI3K-γ IH % (inhibition rate);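 as to all read-outs here: ADP produced by p110γ kinase reaction, 80 min at room temperature, detected by far-red fluorescence polarization immunoassay, inhibition relative to 2% DMSO control wells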
Protocol: (§1) It is a universal, homogenous, high throughput screening (HTS) technology using a far-red, competitive fluorescence polarization immunoassay based on the detection of ADP to monitor the activity of enzymes that catalyze group transfer reactions. […] The reaction mixture was added into desired wells of a 96-well plate. The plate was sealed and incubated for 80 min at room temperature. • 2) Next, 25 uL ADP detection mix was added into each well. The plate was sealed again and incubated for 60 min at room temperature. Then fluorescence polarization was measured by Tecan Infinite F500 Reader.
(§2) Data was analyzed and IC50 values were generated using the add-in software for Microsoft Excel, Xlfit™ (version 5.3).
(§3) Inhibition rates were calculated as follow: IH %=(ADP amount under 2% DMSO well−ADP amount under test compound well)/ADP amount under 2% DMSO well×100%.

PI3K-δ (p110δ/p85α) = PI3K-δ (p110δ/p85α) (Homo sapiens (Human), UniProt O00329); conditions: for inhibition at 1 µM: read-out: PI3K-δ IH % (inhibition rate);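 as to all read-outs here: ADP formed by the kinase detected via far-red competitive fluorescence polarization immunoassay after 80 min room-temperature reaction, inhibition relative to 2% DMSO wells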
Protocol: as §1, §2, §3

PI3K-β = PI3K-β (Homo sapiens, UniProt P42338); conditions: for inhibition at 1 µM: read-out: PI3K-β IH % (inhibition rate); for inhibition at 1 µM / PI3K-β IH % (inhibition rate): at 1 μM;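 as to all read-outs here: recombinant PI3K enzyme reaction, 80 min at room temperature, ADP formed detected by far-red competitive fluorescence polarization immunoassay, inhibition relative to ADP in 2% DMSO control wells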
Chain of PI3K-β (P42338 whole entry, looked up): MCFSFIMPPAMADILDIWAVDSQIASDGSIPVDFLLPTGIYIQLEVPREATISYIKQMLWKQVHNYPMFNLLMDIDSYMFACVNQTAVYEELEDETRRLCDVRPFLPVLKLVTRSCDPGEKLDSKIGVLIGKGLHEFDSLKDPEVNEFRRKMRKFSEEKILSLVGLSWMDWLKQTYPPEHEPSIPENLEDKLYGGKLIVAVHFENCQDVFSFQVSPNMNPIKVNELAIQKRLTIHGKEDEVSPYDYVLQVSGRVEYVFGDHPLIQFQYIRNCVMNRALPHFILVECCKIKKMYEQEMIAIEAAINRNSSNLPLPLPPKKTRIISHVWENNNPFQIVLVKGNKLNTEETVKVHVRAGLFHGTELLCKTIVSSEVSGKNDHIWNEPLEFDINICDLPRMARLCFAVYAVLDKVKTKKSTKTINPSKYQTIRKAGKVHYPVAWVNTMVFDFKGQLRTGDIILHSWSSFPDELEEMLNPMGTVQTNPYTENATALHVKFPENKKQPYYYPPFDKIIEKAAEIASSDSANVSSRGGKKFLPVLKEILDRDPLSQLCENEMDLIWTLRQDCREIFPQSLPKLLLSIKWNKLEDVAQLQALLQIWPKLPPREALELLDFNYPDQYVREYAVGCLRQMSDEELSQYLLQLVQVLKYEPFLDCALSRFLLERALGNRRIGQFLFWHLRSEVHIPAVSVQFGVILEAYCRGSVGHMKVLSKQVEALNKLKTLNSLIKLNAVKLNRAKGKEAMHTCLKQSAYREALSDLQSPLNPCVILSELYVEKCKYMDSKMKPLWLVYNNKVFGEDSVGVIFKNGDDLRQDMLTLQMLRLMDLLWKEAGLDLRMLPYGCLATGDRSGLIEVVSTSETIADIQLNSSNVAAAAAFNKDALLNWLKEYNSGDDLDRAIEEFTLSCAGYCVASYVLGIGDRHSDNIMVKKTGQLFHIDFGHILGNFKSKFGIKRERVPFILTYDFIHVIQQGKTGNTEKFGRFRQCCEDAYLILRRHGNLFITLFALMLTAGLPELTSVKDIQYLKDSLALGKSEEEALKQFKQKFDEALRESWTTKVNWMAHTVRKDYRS
Protocol: as §1, §2, §3

Chain of PI3K-δ (p110δ/p85α) (O00329 whole entry, species assumed): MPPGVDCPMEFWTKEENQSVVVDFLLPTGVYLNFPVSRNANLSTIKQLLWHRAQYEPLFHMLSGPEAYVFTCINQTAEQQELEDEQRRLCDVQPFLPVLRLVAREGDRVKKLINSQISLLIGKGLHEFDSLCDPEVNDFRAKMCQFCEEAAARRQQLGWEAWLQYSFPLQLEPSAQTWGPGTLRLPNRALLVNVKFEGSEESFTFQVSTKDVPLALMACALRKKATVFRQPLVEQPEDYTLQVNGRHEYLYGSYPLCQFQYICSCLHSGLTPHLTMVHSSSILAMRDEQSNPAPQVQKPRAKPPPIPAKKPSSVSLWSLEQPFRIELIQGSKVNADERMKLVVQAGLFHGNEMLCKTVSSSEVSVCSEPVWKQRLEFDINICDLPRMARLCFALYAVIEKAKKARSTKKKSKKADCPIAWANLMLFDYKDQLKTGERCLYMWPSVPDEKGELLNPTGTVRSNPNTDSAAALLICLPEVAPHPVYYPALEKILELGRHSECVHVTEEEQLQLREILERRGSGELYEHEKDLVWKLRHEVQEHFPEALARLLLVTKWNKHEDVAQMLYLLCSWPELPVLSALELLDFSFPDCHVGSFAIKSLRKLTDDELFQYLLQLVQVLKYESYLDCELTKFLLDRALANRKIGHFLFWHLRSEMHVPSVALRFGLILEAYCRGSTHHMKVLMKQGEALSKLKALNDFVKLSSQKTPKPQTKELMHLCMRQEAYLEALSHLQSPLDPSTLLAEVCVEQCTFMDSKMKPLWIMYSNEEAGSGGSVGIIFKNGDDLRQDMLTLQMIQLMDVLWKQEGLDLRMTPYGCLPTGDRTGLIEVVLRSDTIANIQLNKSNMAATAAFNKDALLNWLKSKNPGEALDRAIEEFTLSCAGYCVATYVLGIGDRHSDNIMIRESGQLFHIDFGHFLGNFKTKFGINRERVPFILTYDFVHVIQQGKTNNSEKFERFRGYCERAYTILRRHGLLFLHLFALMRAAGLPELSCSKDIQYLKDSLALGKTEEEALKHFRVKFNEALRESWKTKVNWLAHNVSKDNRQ
Chain of PI3K-δ (p110δ/p85α) (P27986 whole entry partner, species assumed): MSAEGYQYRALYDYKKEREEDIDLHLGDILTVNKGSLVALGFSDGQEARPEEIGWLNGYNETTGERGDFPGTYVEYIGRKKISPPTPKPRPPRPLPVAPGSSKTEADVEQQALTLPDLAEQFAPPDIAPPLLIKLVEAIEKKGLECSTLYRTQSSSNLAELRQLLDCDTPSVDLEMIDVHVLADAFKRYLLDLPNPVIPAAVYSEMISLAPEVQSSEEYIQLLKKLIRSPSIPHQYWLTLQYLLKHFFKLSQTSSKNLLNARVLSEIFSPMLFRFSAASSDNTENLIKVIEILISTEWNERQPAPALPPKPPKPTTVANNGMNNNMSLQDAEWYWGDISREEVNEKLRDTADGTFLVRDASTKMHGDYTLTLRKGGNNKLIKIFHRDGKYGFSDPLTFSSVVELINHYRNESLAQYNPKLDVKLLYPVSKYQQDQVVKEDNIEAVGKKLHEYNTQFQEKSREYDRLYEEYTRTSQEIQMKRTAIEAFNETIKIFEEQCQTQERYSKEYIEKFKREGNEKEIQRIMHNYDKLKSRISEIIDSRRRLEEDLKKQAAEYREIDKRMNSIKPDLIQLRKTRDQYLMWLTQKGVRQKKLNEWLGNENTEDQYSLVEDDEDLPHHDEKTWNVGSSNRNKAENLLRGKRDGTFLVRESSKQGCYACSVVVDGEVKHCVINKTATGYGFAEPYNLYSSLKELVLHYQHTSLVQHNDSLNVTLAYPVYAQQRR
Chain of PI3K-γ (p110γ) (P48736 whole entry, species assumed): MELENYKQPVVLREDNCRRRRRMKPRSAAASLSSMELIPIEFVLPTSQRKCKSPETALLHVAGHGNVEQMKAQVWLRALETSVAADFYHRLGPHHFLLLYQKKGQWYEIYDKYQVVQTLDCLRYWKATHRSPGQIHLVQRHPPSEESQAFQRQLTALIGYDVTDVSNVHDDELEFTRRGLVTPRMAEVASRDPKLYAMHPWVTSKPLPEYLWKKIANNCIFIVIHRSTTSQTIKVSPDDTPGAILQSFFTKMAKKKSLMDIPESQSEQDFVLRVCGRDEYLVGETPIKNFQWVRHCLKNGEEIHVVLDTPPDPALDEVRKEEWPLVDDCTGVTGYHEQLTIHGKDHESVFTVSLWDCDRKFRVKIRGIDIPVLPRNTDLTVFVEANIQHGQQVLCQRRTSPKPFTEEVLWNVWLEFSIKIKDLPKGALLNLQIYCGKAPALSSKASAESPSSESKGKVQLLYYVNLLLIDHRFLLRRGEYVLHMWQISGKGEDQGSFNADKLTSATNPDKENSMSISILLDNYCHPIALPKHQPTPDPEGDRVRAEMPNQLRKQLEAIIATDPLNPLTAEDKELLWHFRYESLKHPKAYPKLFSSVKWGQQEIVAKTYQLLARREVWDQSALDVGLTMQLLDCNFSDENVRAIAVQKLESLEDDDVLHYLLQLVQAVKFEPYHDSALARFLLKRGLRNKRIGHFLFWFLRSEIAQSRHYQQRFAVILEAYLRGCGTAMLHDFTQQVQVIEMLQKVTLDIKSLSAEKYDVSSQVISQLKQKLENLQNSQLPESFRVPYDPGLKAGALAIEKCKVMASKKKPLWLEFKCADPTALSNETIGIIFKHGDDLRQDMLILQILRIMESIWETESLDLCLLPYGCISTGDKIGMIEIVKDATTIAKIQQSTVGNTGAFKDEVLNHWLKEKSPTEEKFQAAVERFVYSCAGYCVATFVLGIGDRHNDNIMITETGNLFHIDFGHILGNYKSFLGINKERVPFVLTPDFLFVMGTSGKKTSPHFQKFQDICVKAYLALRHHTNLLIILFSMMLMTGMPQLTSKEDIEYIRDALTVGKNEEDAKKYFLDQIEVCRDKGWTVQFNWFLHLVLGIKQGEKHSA

Row | SMILES | inhibition at 1 µM (PI3K-γ (p110γ); at 1 μM) | inhibition at 1 µM (PI3K-β) | IC50 (PI3K-δ (p110δ/p85α)) | further results
1 | C[C@H](Nc1nc(N)ncc1C#N)c1cc2ncc(Cl)n2nc1-c1ccccc1 [Compound 34] | -19.3% | 3.7% |  | inhibition at 1 µM (PI3K-δ (p110δ/p85α)): 8.3%
2 | C[C@H](Nc1nc[n+]([O-])c(N)c1C#N)c1cc2ncc(Cl)n2nc1-c1ccccc1 [Compound 51, (S)-6-amino-4-((1-(3-chloro-6-phenylimidazo[1,2-b]pyridazin-7-yl)ethyl)amino)-5-cyanopyrimidine 1-oxide] |  | -15.5% |  | inhibition at 1 µM (PI3K-γ (p110γ)): 36.7%
3 | CCC(Nc1ncnc(N)c1C#N)c1cc2ncc(Cl)n2nc1-c1ccccn1 (stereo not drawn) [Compound 28] | 18.8% | 11.1% |  | inhibition at 1 µM (PI3K-δ (p110δ/p85α)): 39.8%
4 | C[C@H](Nc1ncnc(N)c1C(=O)N(C)C)c1cc2ncc(Cl)n2nc1-c1ccccc1 [Compound 56] | 1% | 9% |  | inhibition at 1 µM (PI3K-δ (p110δ/p85α)): 21%
5 | C[C@H](Nc1ncnc(N)c1C#N)c1cc2ncc(Cl)n2nc1-c1ccc(O)cc1 [Compound 49] |  |  | 1 nM | IC50 (PI3K-γ (p110γ)): 146 nM; IC50 (PI3K-β): 1 nM
6 | CNc1ncnc(N[C@@H](C)c2cc3ncc(Cl)n3nc2-c2ccccc2)c1C#N [Compound 33, (S)-4-((1-(3-chloro-6-phenylimidazo[1,2-b]pyridazin-7-yl)ethyl)amino)-6-(methylamino)pyrimidine-5-carbonitrile] | -6.9% | 2.2% | 288 nM | 
7 | C[C@@H](Nc1ncnc(N)c1C#N)c1cc2ncc(Cl)n2nc1-c1ccccn1 [Compound 7, (R)-4-amino-6-((1-(3-chloro-6-(pyridin-2-yl)imidazo[1,2-b]pyridazin-7-yl)ethyl)amino)pyrimidine-5-carbonitrile] | -2.3% | -2.7% |  | inhibition at 1 µM (PI3K-δ (p110δ/p85α)): 12.5%
8 | C[C@H](Nc1ncnc(N)c1C#N)c1cc2ncc(Cl)n2nc1-c1ccc(Cl)c(F)c1 [Compound 64] |  | 44.1% | 48 nM | IC50 (PI3K-γ (p110γ)): > 333 nM
9 | Cc1nnc(-c2c(N)ncnc2N[C@@H](C)c2cc3ncc(Cl)n3nc2-c2ccccc2)o1 [Compound 81, (S)—N^4-(1-(3-chloro-6-phenylimidazo[1,2-b]pyridazin-7-yl)ethyl)-5-(5-methyl-1,3,4-oxadiazol-2-yl)pyrimidine-4,6-diamine] |  |  | 2 nM | IC50 (PI3K-γ (p110γ)): 98 nM
10 | C[C@H](Nc1ncnc(N)c1C(=O)O)c1cc2ncc(Cl)n2nc1-c1ccccc1 [Compound 52, (S)-4-amino-6-((1-(3-chloro-6-phenylimidazo[1,2-b]pyridazin-7-yl)ethyl)amino)pyrimidine-5-carboxylic acid] |  | -6.3% | 80 nM | inhibition at 1 µM (PI3K-γ (p110γ)): -26.1%
11 | C[C@H](Nc1ncnc(N)c1C#N)c1cc2ncc(Cl)n2nc1-c1cccc(C(C)(C)O)c1 (single isomer, unassigned) [Compound 79, (chiral)-4-amino-6-((1-(3-chloro-6-(3-(2-hydroxypropan-2-yl)phenyl)imidazo[1,2-b]pyridazin-7-yl)ethyl)amino)pyrimidine-5-carbonitrile] |  |  |  | PI3K-γ IH % (inhibition rate) (PI3K-γ (p110γ); at 1 μM): 56.2%; PI3K-β IH % (inhibition rate) (PI3K-β): 43.8%
12 | C[C@H](Nc1ncnc(N)c1-c1cccc(F)c1)c1cc2ncc(Cl)n2nc1-c1ccccc1 [Compound 37, (S)—N^4-(1-(3-chloro-6-phenylimidazo[1,2-b]pyridazin-7-yl)ethyl)-5-(3-fluorophenyl)pyrimidine-4,6-diamine] | 27.5% | -0.4% | 288 nM | 
13 | CCC(Nc1ncnc2[nH]cnc12)c1cc2ncc(Cl)n2nc1-c1ccccc1F (single isomer, unassigned) [Compound 26] | 8% |  |  | PI3K-β IH % (inhibition rate) (PI3K-β): −7.5%
14 | C[C@H](Nc1ncnc(N)c1C#N)c1cc2ncc(Cl)n2nc1-c1cnn(C)c1 [Compound 72] |  |  | 4 nM | IC50 (PI3K-γ (p110γ)): 513 nM; IC50 (PI3K-β): 89 nM
15 | CC[C@@H](Nc1ncnc(N)c1C#N)c1cc2ncc(Cl)n2nc1-c1cccc(F)c1 [Compound 43, (R)-4-amino-6-((1-(3-chloro-6-(3-fluorophenyl)imidazo[1,2-b]pyridazin-7-yl)propyl)amino)pyrimidine-5-carbonitrile] | 27.2% | 23.6% | 132 nM | 
16 | C[C@H](Nc1ncnc(N)c1C#N)c1cc2ncc(Cl)n2nc1-c1ccccc1O [Compound 69, (S)-4-amino-6-((1-(3-chloro-6-(2-hydroxyphenyl)imidazo[1,2-b]pyridazin-7-yl)ethyl)amino)pyrimidine-5-carbonitrile] |  |  | 1 nM | 
17 | C[C@H](Nc1ncnc(N)c1C#N)c1cc2ncc(Cl)n2nc1-c1ccccc1F [Compound 12] |  |  | 2 nM | IC50 (PI3K-γ (p110γ)): 550 nM; IC50 (PI3K-β): 80 nM
18 | CC(Nc1ncnc2[nH]cnc12)c1cc2ncc(Cl)n2nc1-c1ccccc1 (single isomer, unassigned) [Compound 11] |  | 55.7% | 3 nM | IC50 (PI3K-γ (p110γ)): 94 nM
19 | CCC(Nc1ncnc2[nH]cnc12)c1cc2ncc(Cl)n2nc1-c1ccccc1 (stereo not drawn) [Compound 14] | 22.5% |  |  | inhibition at 1 µM (PI3K-δ (p110δ/p85α)): 51%; PI3K-β IH % (inhibition rate) (PI3K-β): 3.2%
20 | C[C@H](Nc1ncnc(N)c1-c1ccc(O)c(F)c1)c1cc2ncc(Cl)n2nc1-c1ccccc1 [Compound 38] | 54.3% | -2.2% | 66 nM | 

Row | SMILES | inhibition at 1 µM (PI3K-γ (p110γ); at 1 μM) | inhibition at 1 µM (PI3K-β) | IC50 (PI3K-δ (p110δ/p85α)) | further results
21 | C[C@H](Nc1nc(O)nc(N)c1C#N)c1cc2ncc(Cl)n2nc1-c1ccccc1 [Compound 55, (S)-4-amino-6-((1-(3-chloro-6-phenylimidazo[1,2-b]pyridazin-7-yl)ethyl)amino)-2-hydroxypyrimidine-5-carbonitrile] | -4.7% | 8.5% |  | inhibition at 1 µM (PI3K-δ (p110δ/p85α)): 60.3%
22 | C[C@@H](c1cc2ncc(Cl)n2nc1-c1ccccc1)N(C)c1ncnc(N)c1C#N [Compound 42, (S)-4-amino-6-((1-(3-chloro-6-phenylimidazo[1,2-b]pyridazin-7-yl)ethyl)(methyl)amino)pyrimidine-5-carbonitrile] | 18.2% | 7.4% | 339 nM | 
23 | C[C@H](Nc1ncnc(N)c1-c1cnn(C)c1)c1cc2ncc(Cl)n2nc1-c1ccccc1 [Compound 57] | 30.3% | 6.3% | 62 nM | 
24 | C[C@H](Nc1ncnc(N)c1C#N)c1cc2ncc(F)n2nc1-c1ccccc1 [Compound 78] |  | 50.1% |  | 
25 | C[C@@H](Nc1ncnc(N)c1C#N)c1cc2ncc(Cl)n2nc1-c1ccccc1 [Compound 3, (R)-4-amino-6-((1-(3-chloro-6-phenylimidazo[1,2-b]pyridazin-7-yl)ethyl)amino)pyrimidine-5-carbonitrile] | 6.9% |  |  | 
26 | CC[C@H](Nc1ncnc2[nH]cnc12)c1cc2ncc(Cl)n2nc1-c1cccc(F)c1 [Compound 47] | 55.2% | 32.2% | 18 nM | 
27 | C[C@H](Nc1ncnc(N)c1C#N)c1cc2ncc(Cl)n2nc1-c1ccc(F)c(F)c1 [Compound 63] |  | 48.1% | 6 nM | IC50 (PI3K-γ (p110γ)): 105 nM
28 | C[C@H](Nc1ncnc(N)c1C#N)c1cc2ncc(Cl)n2nc1-c1ccc2c(c1)OCCO2 [Compound 70] |  | 37.4% |  | 
29 | CC(Nc1ncnc(N)c1C#N)c1cc2nccn2nc1-c1ccccc1 (stereo not drawn) [Compound 1, 4-amino-6-((1-(6-phenylimidazo[1,2-b]pyridazin-7-yl)ethyl)amino)pyrimidine-5-carbonitrile] |  | 28.1% | 28 nM | inhibition at 1 µM (PI3K-γ (p110γ)): 16.1%
30 | C[C@H](Nc1ncnc(N)c1C#N)c1cc2ncc(Cl)n2nc1-c1ccncc1 [Compound 73] | 62.8% | 60.8% | 82 nM | 
31 | C[C@H](Nc1ncnc(N)c1C#N)c1cc2ncc(Cl)n2nc1-c1ccsc1 [Compound 60] |  |  | 1 nM | IC50 (PI3K-γ (p110γ)): 48 nM; IC50 (PI3K-β): 34 nM
32 | Cc1cn2nc(-c3ccccc3)c([C@H](C)Nc3ncnc(N)c3C#N)cc2n1 [Compound 58] | 20.2% | 20.5% | 138 nM | 
33 | C[C@@H](Nc1ncnc(N)c1C#N)c1cc2ncc(Cl)n2nc1-c1ccc2scnc2c1 [Compound 75] | 31.7% | -7.1% |  | inhibition at 1 µM (PI3K-δ (p110δ/p85α)): 1%
34 | Cc1noc(-c2c(N)ncnc2N[C@@H](C)c2cc3ncc(Cl)n3nc2-c2ccccc2)n1 [Compound 82, (S)—N^4-(1-(3-chloro-6-phenylimidazo[1,2-b]pyridazin-7-yl)ethyl)-5-(3-methyl-1,2,4-oxadiazol-5-yl)pyrimidine-4,6-diamine] |  | 55.2% | 13 nM | IC50 (PI3K-γ (p110γ)): 203 nM
35 | COc1cc(-c2c(N)ncnc2N[C@@H](C)c2cc3ncc(Cl)n3nc2-c2ccccc2)ccn1 [Compound 50] | 5.5% | -14.1% |  | inhibition at 1 µM (PI3K-δ (p110δ/p85α)): 68.9%
36 | C[C@H](Nc1ncnc(N)c1C#N)c1cc2ncc(Cl)n2nc1-c1ccc2ccccc2c1 [Compound 71] | 32.6% | 35.2% | 129 nM | 
37 | C[C@H](Nc1ncnc(N)c1C#N)c1cc2ncc(Cl)n2nc1-c1cccc(O)c1 [Compound 54] |  |  | 2 nM | IC50 (PI3K-γ (p110γ)): 226 nM; IC50 (PI3K-β): 9 nM
38 | C[C@H](Nc1ncnc(N)c1C#N)c1cc2ncc(Cl)n2nc1-c1ccc2ccn(C)c2c1 [Compound 76] | -14.3% | 54.9% |  | inhibition at 1 µM (PI3K-δ (p110δ/p85α)): 48.9%
39 | CC[C@@H](Nc1ncnc2[nH]cnc12)c1cc2ncc(Cl)n2nc1-c1cccc(F)c1 [Compound 44] | 36% | 18.8% | 283 nM | 
40 | CC[C@@H](Nc1ncnc(N)c1C#N)c1cc2ncc(Cl)n2nc1-c1ccccc1 [Compound 5, (R)-4-amino-6-((1-(3-chloro-6-phenylimidazo[1,2-b]pyridazin-7-yl)propyl)amino)pyrimidine-5-carbonitrile] | 4.1% | -10.7% |  | inhibition at 1 µM (PI3K-δ (p110δ/p85α)): 47.3%
